# “And” between values parts separate entries of the source, which are not always exact repeats. Identical values can stand only once. Like-named read-outs stand apart in the source and are kept apart here.
# Tests used:
# [1] = tested on: hair-shaved back sites of C3H/HeN mice; experiment: Telogen phase model, Test 1: hair growth at hair-shaved back sites; type: in vivo
# Protocol: (§1) C3H/HeN mice (Charles River Japan (Kanagawa, Japan)) of 6 weeks old, the hair cycle of which repeatedly proceeds anagen phase, catagen phase and telogen phase in this order, were raised for a week for acclimatization. At the age of 7 weeks (the telogen phase is started at the age), hairs on the back were shaved off by an electric clipper and a shaver. After the mice were raised overnight, application of a test solution (200 μL per site) to the hair-shaved site was initiated.
# (§2) In both of Test 1 and Test 2, each test solution was applied to the hair-shaved back sites of 5-12 mice per group, daily at a frequency of once a day. […] Alternatively, where needed, the hair growth effects were evaluated by calculating % hair-growth areas.
# (§3) The evaluation results of Test 1 and Test 2 are shown in Table 1 and Table 2, respectively. Evaluation results were shown by scores based on the following criteria: when the hair-growth area calculated was 0% or more and less than 10%, score 1 was given; when the hair-growth area calculated was 10% or more and less than 25%, score 2 was given, when the hair-growth area calculated was 25% or more and less than 50%, score 3 was given; when the hair-growth area calculated was 50% or more and less than 75%, score 4 was given; and when the hair-growth area calculated was 75% or more, score 5 was given.
# [2] = tested on: hair-shaved back sites of C3H/HeN mice; experiment: Telogen phase model, Test 2: hair growth at hair-shaved back sites; type: in vivo
# Protocol: as §1, §2, §3
# [3] = Protocol: (§4) Each test drug was applied to hair-shaved back sites (in an amount of 200 μL per site) of 5-6 animals per group, daily at a frequency of once a day. At 10 minutes and 30 minutes after the application on Day 20, average body surface temperature (° C.) was measured. […] Body surface temperature (° C.) was measured by photographing a hair-shaved site and its periphery using an infrared thermography camera (Thermoshot F30S (NEC/Avio, Tokyo, Japan)). The average body surface temperature per area was calculated using InfRec Analyzer NS9500 Standard (NEC/Avio, Tokyo, Japan).
# These animals were subjected to drawing blood from the hearts on the final week for biochemical examination. Each blood was allowed to stand still on ice for 30 minutes and centrifuged twice at 10,000 rpm for 15 minutes (at 4° C.). The supernatants (i.e., sera) were transferred to new containers and stored in a freezer (at −80° C.). The sera were analyzed using a clinical chemistry analyzer for animal (FUJI DRI-CHEM 3500V) and special slides to obtain the values of [GPT (glutamate-pyruvate transaminase), GOT (glutamate oxaloacetate transaminase), GGT (γ-glutamyl transferase), LDH (lactate dehydrogenase), CHE (cholinesterase), CPK (creatine phosphokinase), ALB (albumin), TP (total protein), TCHO (total cholesterol), and TG (triglyceride)].
# [4] = tested on: mouse skin tissue; conditions: positive control, 5% MXD
# Protocol: Specifically, the skin tissue was taken and fixed in 10% neutral buffered formalin. Paraffin sections thereof were prepared, stained with HE, and microscopically observed.
# [5] = tested on: mouse skin tissue; experiment: Histological examination of skin tissue, anagen phase model (Example 4); type: in vivo, C3H/HeN mice; conditions: Positive control 5% MXD; after 24 days application; n = 8
# Protocol: Paraffin sections were prepared, stained with hematoxylin/eosin (HE), and microscopically observed. Hair root density and anagen phase/telogen phase ratio were evaluated.
# [6] = Average body surface temperature by infrared thermography (Example 2); conditions: Sodium thiosulfate 10% (w/v)
# Protocol: as §4
# [7] = Minoxidil 1% (w/v), Day 54 after initiation of application
# [8] = Minoxidil 1%, serum, final week, N=5
# [9] = Sodium thiosulfate 10% (w/v), Day 69 after initiation of application
# [10] = Sodium thiosulfate 10%, serum, final week, N=5
smiles,measurement,setting,value
"Nc1cc(N2CCCCC2)nc(N)[n+]1[O-] [Minoxidil, minoxidil, reference compound]",hair growth score,"[1]; Minoxidil 1% (w/v), Day 26 after initiation of application",0
same,hair growth score,"[1]; Minoxidil 1% (w/v), Day 32 after initiation of application",0
same,hair growth score,"[1]; Minoxidil 1% (w/v), Day 40 after initiation of application",0
same,hair growth score,"[1]; Minoxidil 1% (w/v), Day 47 after initiation of application",0
same,hair growth score,[1]; [7],0
same,hair growth score,"[1]; Minoxidil 1% (w/v), Day 62 after initiation of application",0
same,hair growth score,"[1]; Minoxidil 1% (w/v), Day 69 after initiation of application",0
same,hair growth score,"[1]; Minoxidil 1% (w/v), Day 76 after initiation of application",0
same,hair growth score,"[1]; Minoxidil 1% (w/v), Day 83 after initiation of application",0
same,hair growth score,"[1]; Minoxidil 1% (w/v), Day 90 after initiation of application",0
same,hair growth score,"[2]; Minoxidil 1% (w/v), Day 27 after initiation of application",0
same,hair growth score,"[2]; Minoxidil 1% (w/v), Day 34 after initiation of application",0
same,hair growth score,"[2]; Minoxidil 1% (w/v), Day 41 after initiation of application",0
same,hair growth score,"[2]; Minoxidil 1% (w/v), Day 48 after initiation of application",0
same,hair growth score,[2]; [7],0
same,hair growth score,"[2]; Minoxidil 1% (w/v), Day 61 after initiation of application",0
same,CHE,[3]; [8],16.6 ± 1.5 U/l
same,TG,[3]; [8],294.0 ± 44.1 mg/dL
same,TP,[3]; [8],4.7 ± 0.5 g/dL
same,ALB,"[3]; mouse, in vivo",2.2 ± 0.1 g/dL
same,CPK,"[3]; mouse, in vivo",321.6 ± 231.5 U/l
same,GGT,"[3]; mouse, in vivo",1.0 ± 0.0 U/l
same,GOT (AST),"[3]; mouse, in vivo",66.8 ± 40.2 U/l
same,LDH,"[3]; mouse, in vivo",237.8 ± 101.6 U/l
same,TCHO,"[3]; mouse, in vivo",167.2 ± 19.3 mg/dL
same,tissue abnormality (HE-stained skin sections),[4],no individuals having tissue abnormality were found
same,Anagen phase/telogen phase,[5],0.11 ± 0.05
same,Hair root density,[5],2.04 ± 0.32 /mm
same,Subcutaneous tissue,[5],38.4 ± 9 µm
"O=S([O-])([O-])=S.[Na+].[Na+] [Sodium thiosulfate, sodium thiosulfate]",hair growth score,"[1]; Sodium thiosulfate 1% (w/v), Day 26 after initiation of application",0
same,hair growth score,"[1]; Sodium thiosulfate 1% (w/v), Day 32 after initiation of application",0
same,hair growth score,"[1]; Sodium thiosulfate 1% (w/v), Day 40 after initiation of application",0
same,hair growth score,"[1]; Sodium thiosulfate 1% (w/v), Day 47 after initiation of application",0
same,hair growth score,"[1]; Sodium thiosulfate 1% (w/v), Day 54 after initiation of application",0
same,hair growth score,"[1]; Sodium thiosulfate 1% (w/v), Day 62 after initiation of application",0
same,hair growth score,"[1]; Sodium thiosulfate 1% (w/v), Day 69 after initiation of application",0
same,hair growth score,"[1]; Sodium thiosulfate 1% (w/v), Day 76 after initiation of application",0
same,hair growth score,"[1]; Sodium thiosulfate 1% (w/v), Day 83 after initiation of application",0
same,hair growth score,"[1]; Sodium thiosulfate 1% (w/v), Day 90 after initiation of application",0
same,hair growth score,"[1]; Sodium thiosulfate 2% (w/v), Day 26 after initiation of application",0
same,hair growth score,"[1]; Sodium thiosulfate 2% (w/v), Day 32 after initiation of application",0
same,hair growth score,"[1]; Sodium thiosulfate 2% (w/v), Day 40 after initiation of application",0
same,hair growth score,"[1]; Sodium thiosulfate 2% (w/v), Day 47 after initiation of application",0
same,hair growth score,"[1]; Sodium thiosulfate 2% (w/v), Day 54 after initiation of application",0
same,hair growth score,"[1]; Sodium thiosulfate 2% (w/v), Day 62 after initiation of application",0
same,hair growth score,"[1]; Sodium thiosulfate 2% (w/v), Day 69 after initiation of application",0
same,hair growth score,"[1]; Sodium thiosulfate 2% (w/v), Day 76 after initiation of application",0
same,hair growth score,"[1]; Sodium thiosulfate 2% (w/v), Day 83 after initiation of application",0
same,hair growth score,"[1]; Sodium thiosulfate 2% (w/v), Day 90 after initiation of application",0
same,hair growth score,"[1]; Sodium thiosulfate 2% (w/v), Day 97 after initiation of application",0
same,hair growth score,"[1]; Sodium thiosulfate 4% (w/v), Day 26 after initiation of application",0
same,hair growth score,"[1]; Sodium thiosulfate 4% (w/v), Day 32 after initiation of application",0
same,hair growth score,"[1]; Sodium thiosulfate 4% (w/v), Day 40 after initiation of application",0
same,hair growth score,"[1]; Sodium thiosulfate 4% (w/v), Day 47 after initiation of application",0
same,hair growth score,"[1]; Sodium thiosulfate 4% (w/v), Day 54 after initiation of application",0
same,hair growth score,"[1]; Sodium thiosulfate 10% (w/v), Day 26 after initiation of application",0
same,hair growth score,"[1]; Sodium thiosulfate 10% (w/v), Day 32 after initiation of application",0
same,hair growth score,"[1]; Sodium thiosulfate 10% (w/v), Day 40 after initiation of application",0
same,hair growth score,[1]; [9],"2 (when the hair-growth area calculated was 10% or more and less than 25%, score 2 was given) and 3 (when the hair-growth area calculated was 25% or more and less than 50%, score 3 was given)"
same,time point when hairs start growing (Kaplan-Meier curves),"[1]; as the concentration of sodium thiosulfate increases, Tests 1 and 2, FIGS. 2 and 3",new hairs tend to start growing from the earlier stage
same,start of new hair growth and hair-growth area compared to the negative control,"[1]; sodium thiosulfate alone, 4% (w/v) or more",started growing at early stage after the application
same,hair growth score,"[2]; Sodium thiosulfate 10% (w/v), Day 27 after initiation of application",0
same,hair growth score,"[2]; Sodium thiosulfate 10% (w/v), Day 34 after initiation of application",0
same,hair growth score,[2]; [9],"2 (when the hair-growth area calculated was 10% or more and less than 25%, score 2 was given) and 4 (when the hair-growth area calculated was 50% or more and less than 75%, score 4 was given) and 3 (when the hair-growth area calculated was 25% or more and less than 50%, score 3 was given)"
same,hair growth score,"[2]; Sodium thiosulfate 10% (w/v), Day 90 after initiation of application","3 (when the hair-growth area calculated was 25% or more and less than 50%, score 3 was given) and 5 (when the hair-growth area calculated was 75% or more, score 5 was given) and 4 (when the hair-growth area calculated was 50% or more and less than 75%, score 4 was given)"
same,ALB,[3]; [10],2.2 ± 0.1 g/dL
same,CHE,[3]; [10],19.8 ± 3.1 U/l
same,CPK,[3]; [10],608.4 ± 642.5 U/l
same,GGT,[3]; [10],1.0 ± 0.0 U/l
same,GOT (AST),[3]; [10],83.2 ± 46.3 U/l
same,GPT (ALT),[3]; [10],20.8 ± 2.3 U/l
same,LDH,[3]; [10],277.4 ± 142.6 U/l
same,TCHO,[3]; [10],155.0 ± 10.1 mg/dL
same,TG,[3]; [10],296.8 ± 95.5 mg/dL
same,TP,[3]; [10],4.8 ± 0.3 g/dL
same,average body surface temperature,[6]; 10 minutes after the application on Day 20,36.6 °C and 36.3 °C and 35.8 °C and 35.5 °C and 36.7 °C
same,average body surface temperature,[6]; 30 minutes after the application on Day 20,37.1 °C and 36.6 °C and 37 °C and 37.2 °C

# Source: US10543227B2, “Hair growth composition” (RIKEN, priority 2015, dated 2020)
